Assay results taken from ChEMBL document CHEMBL3045587, “Oxidation of di- and polyamines: in vitro effect of amino aldehydes on the vitality of Leishmania promastigotes” (Med Chem Res, 2010).
Active and inactive are the calls of the source. The calls are words filed in the database; no cut-off is given here.

Columns and labels:
Assay type in all cases: functional, organism-based
Leishmania infantum [1] = assay: Antiparasitic activity against promastigotes of Leishmania infantum MHOM-TN-80-IPT1 assessed as decrease in parasite density up to 3 mM measured at 4th and 7th day by microscopic analysis
Leishmania infantum [2] = assay: Antiparasitic activity against promastigotes of Leishmania infantum MHOM-TN-80-IPT1 assessed as decrease in parasite vitality at 1 to 5 mM measured at 4th day by microscopic analysis
Leishmania infantum [3] = assay: Increase in vitality of Leishmania infantum MHOM-TN-80-IPT1 promastigotes at 1 to 5 mM measured at 7th day by microscopic analysis
Leishmania infantum [4] = assay: Increase in density of Leishmania infantum MHOM-TN-80-IPT1 promastigotes at 1 to 5 mM measured at 7th day by microscopic analysis
Leishmania infantum [5] = assay: Antiparasitic activity against promastigotes of Leishmania infantum MHOM-TN-80-IPT1 assessed as decrease in parasite density at 1 to 5 mM measured at 4th day by microscopic analysis
Leishmania infantum [6] = assay: Antiparasitic activity against promastigotes of Leishmania infantum MHOM-TN-80-IPT1 assessed as decrease in promastigote vitality at 5 mM by counting chamber
Leishmania infantum [7] = assay: Antiparasitic activity against promastigotes of Leishmania infantum MHOM-TN-80-IPT1 assessed as decrease in parasite density at 1 to 5 mM measured at 4th and 7th day by microscopic analysis

SMILES	inhibition (Leishmania infantum [1])	inhibition (Leishmania infantum [2])	Activity (Leishmania infantum [3])	Activity (Leishmania infantum [4])	inhibition (Leishmania infantum [5])	inhibition (Leishmania infantum [6])	inhibition (Leishmania infantum [7])
NCCCNCCCC=O	Active						
NCCCCC=O		Active	Active	Active	Active		
NCCCC=O		Active	Active	Active	Active		
O=CCCNCCCCNCCC=O						Active	Active
